# Reference: patent US20220364065A1, “COMPOSITION FOR REMOVING PLURIPOTENT STEM CELLS AND METHOD OF REMOVING PLURIPOTENT STEM CELLS” (NATIONAL UNIVERSITY CORPORATION HOKKAIDO UNIVERSITY, priority 2018, published 2022)
# Peptide text beside a SMILES is read from it. * marks the point of attachment. Cbz = O=C(OCc1ccccc1)*; CH2F = FC*
# Key:
# [1] = tested on: mouse ES cells; test: Immunostaining of pluripotent stem cell markers (Sox2, Nanog, Oct4), ES cells; type: cell-based; conditions: ES cells, BRQ 10 μM
# Procedure: (§1) The cells were fixed and immunostained as described in Kondo et al., Genes Dev. […] For the culture of ES cells and iPS cells, gelatin-coated ones were used.
# (§2) For immunostaining, the cells were first washed once with PBS, then fixed by adding 4% paraformaldehyde and incubating for 10 minutes at room temperature. The cells were replaced with PBS containing 0.3% Triton X100 and incubated for 5 minutes at room temperature, then replaced with PBS containing 0.3% Triton X100 and 10% FCS (blocking solution) and incubated for 30 minutes at room temperature. The solution was replaced with primary antibody solution diluted in blocking solution and incubated for 2 hours at room temperature. After washing three times with PBS, secondary antibody and DAPI solution diluted with blocking solution were added and incubated at room temperature for 2 hours. […] Note that the cell nuclei were visualized by contrast staining with DAPI solution (1 μg/mL, manufactured by Dojindo, product code: D523). In addition, fluorescence images were acquired with an Axiolmager M1 microscope (manufactured by Carl Zeiss).
# (§3) LMB is a specific inhibitor of CRM1, also known as Exportin 1.
# [2] = tested on: mouse iPS cells; test: Immunostaining of pluripotent stem cell markers (Sox2, Nanog, Oct4), iPS cells; type: cell-based; conditions: iPS cells, BRQ 10 μM
# Procedure: as §1, §2, §3
# [3] = tested on: mouse iPS cells; test: Nucleoside neutralization experiment (MTT), iPS cells; conditions: 10 μM BRQ, 3 days, added up to 500 μM
# Source text: (§4) Pyrimidine synthesis is regulated by the de novo (de novo synthesis) pathway and salvage pathway. DHODH is a key factor in de novo synthesis, catalyzing the fourth chemical reaction in the synthetic pathway. In view of this, the present inventor investigated whether the effect of eliminating pluripotent stem cells by DHODH inhibitors could be eliminated by adding nucleosides such as uridine, which is the starting material of the salvage pathway.
# (§5) In addition, UMP, a product of the pyrimidine synthesis pathway, is converted to UDP and UTP. Furthermore, uridine diphosphate-N-acetylglucosamine (UDP-GlcNac) is also biosynthesized using UTP as a substrate. […] Therefore, the present inventor verified whether the cytotoxic activity of DHODH inhibitors on pluripotent stem cells could also be neutralized by the products from these UMPs.
# [4] = tested on: mouse ES cells; test: Nucleoside neutralization experiment (MTT), ES cells; conditions: 10 μM BRQ, 3 days, added up to 500 μM
# Source text: as §4, §5
molecule,measurement,setting,value
"CCC(=C/[C@H](C)C/C=C/C(C)=C/[C@@H](C)C(=O)[C@@H](C)[C@H](O)[C@@H](C)C/C(C)=C/C(=O)O)/C=C/[C@@H]1OC(=O)C=C[C@@H]1C [LMB, leptomycin B]",nuclear export of Nanog and Oct4 in cells treated with BRQ,"[1]; 2 days, LMB 0.15 nM",completely suppressed
same,nuclear export of Nanog and Oct4 in cells treated with BRQ,"[2]; 2 days, LMB 0.15 nM",completely suppressed
CC(NC(=O)C(NC(=O)OCc1ccccc1)C(C)C)C(=O)NC(CC(=O)O)C(=O)CF (stereo not drawn) [Z-VAD] (Cbz-Val-Ala-Asp-CH2F; configuration not given here),effect on BRQ-dependent cell death,[1]; ZVAD 100 nM,slight delay
same,effect on BRQ-dependent cell death,[2]; ZVAD 100 nM,slight delay
uridine diphosphate-N-acetylglucosamine [UDP-GlcNac],neutralizing activity against the cytotoxic activity of BRQ,[3],neutralized
same,neutralizing activity against the cytotoxic activity of BRQ,[4],neutralized
